{"source": "patent US8629101B2", "about": "“Cholesterol derivatives of inhibitors of viral fusion” (priority 2007, dated 2014)", "key": {"HIV-1 (HXB2)": {"tested_on": "HIV-1 (HXB2)", "type": "cell-based", "conditions": "read-out: IC50 antiviral activity", "text": "The antiviral activity of a peptide from the membrane-proximal external region (MPER) of gp41, which also includes the epitope of monoclonal antibody (MAb) 2F5, […] […] Accordingly, when peptide […] […] Moreover, the nature of the lipid was important, since a bis-Lys(N^ε-Palmitoyl) group was ineffective. Details of the assay used can be found in Joyce et al, J. Biol Chem., 2002, 277, 45811-45820."}, "HIV-HXB2 [1]": {"tested_on": "HIV-HXB2"}, "HIV-HXB2 [2]": {"tested_on": "HIV-HXB2", "experiment": "pre-incubation of peptide with P4-2/R5 cells with/without wash, then HIV-HXB2 infection", "type": "cell-based, HIV-1", "conditions": "with wash versus no wash", "method": "After 48 h, the antiviral activities of the residual peptides that survive the washing steps were determined by measuring the f3-galactosidase activities within lysed cells as described above."}, "[3]": {"experiment": "pharmacokinetics after intraperitoneal injection into the mouse", "type": "in vivo", "conditions": "ip", "text": "Effect of lipid derivatization on the pharmacokinetic properties of C34-chol. In addition to providing improved antiviral potency, derivatization with cholesterol also extends the half-life of the peptide in vivo."}, "multiple HIV-1 isolates": {"tested_on": "multiple HIV-1 isolates", "experiment": "single-cycle infectivity assay across the panel of viral strains", "conditions": "variety of viral strains", "method": "HIV-1 Infectivity Assay (31). P4-2/R5 cells (HeLa cells expressing endogenous CXCR4 and stably transfected to express CD4 and CCR5 which also contain an integrated β-galactosidase reporter gene under control of an HIV LTR promoter) maintained in phenol red-free Dulbecco's modified Eagle's medium, 10% fetal bovine serum, 1% penicillin/streptomycin were seeded in 96-well plates at 2.5×10^3 cells/well and infected the following day with the HXB2 strain (and a variety of other strains in some cases) of HIV-1 (Advanced Biotechnology Inc., Bethesda, Md.) in the presence of titrations of the test inhibitory peptides at 37° C. After 48 h incubation with both virus and inhibitory peptides, cells were lysed and β-galactosidase was detected using Gal Screen™ chemiluminescent substrate (Applied Biosystems, Foster City, Calif.) according to the manufacturer's instructions. Data were obtained using a Dynex luminometer and IC50 values were calculated by KaleidaGraph."}}, "note": "Where a SMILES comes first, the peptide text is derived from it. The star is where a group is joined. X1 = CC(C)CCC[C@@H](C)[C@H]1CC[C@H]2[C@@H]3CC=C4C[C@@H](OC(=O)C*)CC[C@]4(C)[C@H]3CC[C@]12C", "data": [{"compound": "CC(=O)N[C@@H](CCC(=O)O)C(=O)N[C@@H](CC(C)C)C(=O)N[C@@H](CC(C)C)C(=O)N[C@@H](CCC(=O)O)C(=O)N[C@@H](CC(C)C)C(=O)N[C@@H](CC(=O)O)C(=O)N[C@@H](CCCCN)C(=O)N[C@@H](Cc1c[nH]c2ccccc12)C(=O)N[C@@H](C)C(=O)N[C@@H](CO)C(=O)N[C@@H](CC(C)C)C(=O)N[C@@H](Cc1c[nH]c2ccccc12)C(=O)N[C@@H](CSCC(=O)O[C@H]1CC[C@@]2(C)C(=CC[C@H]3[C@@H]4CC[C@H]([C@H](C)CCCC(C)C)[C@@]4(C)CC[C@@H]32)C1)C(N)=O", "note": "(Ac-ELLELDKWASLWC(X1)-NH2)", "values": [{"measurement": "IC50", "setting": "HIV-1 (HXB2)", "result": 5.85, "unit": "µM"}]}, {"compound": "CC[C@H](C)[C@H](NC(=O)[C@H](CC(C)C)NC(=O)[C@H](CO)NC(=O)[C@H](Cc1c[nH]cn1)NC(=O)[C@@H](NC(=O)[C@H](CC(C)C)NC(=O)[C@H](CO)NC(=O)[C@@H](NC(=O)[C@H](Cc1ccc(O)cc1)NC(=O)[C@H](CC(N)=O)NC(=O)[C@H](CC(N)=O)NC(=O)[C@@H](NC(=O)[C@H](CCC(=O)O)NC(=O)[C@H](CCCNC(=N)N)NC(=O)[C@H](CC(=O)O)NC(=O)[C@H](Cc1c[nH]c2ccccc12)NC(=O)[C@H](CCC(=O)O)NC(=O)[C@H](CCSC)NC(=O)[C@H](Cc1c[nH]c2ccccc12)NC(=O)CNC(=O)[C@H](CO)NC(=O)CNC(=O)[C@H](CSCC(=O)O[C@H]1CC[C@@]2(C)C(=CC[C@H]3[C@@H]4CC[C@H]([C@H](C)CCCC(C)C)[C@@]4(C)CC[C@@H]32)C1)NC(C)=O)[C@@H](C)CC)[C@@H](C)O)[C@@H](C)CC)C(=O)N[C@@H](CCC(=O)O)C(=O)N[C@@H](CCC(=O)O)C(=O)N[C@@H](CO)C(=O)N[C@@H](CCC(N)=O)C(=O)N[C@@H](CC(N)=O)C(=O)N[C@@H](CCC(N)=O)C(=O)N[C@@H](CCC(N)=O)C(=O)N[C@@H](CCC(=O)O)C(=O)N[C@@H](CCCCN)C(=O)N[C@@H](CC(N)=O)C(=O)N[C@@H](CCC(=O)O)C(=O)N[C@@H](CCC(N)=O)C(=O)N[C@@H](CCC(=O)O)C(=O)N[C@@H](CC(C)C)C(=O)N[C@@H](CC(C)C)C(N)=O", "note": "[Chol-C34]", "values": [{"measurement": "decrease of antiviral activity compared to underivatized C34", "setting": "HIV-HXB2 [1]; cholesterol at the N-terminus", "result": 50, "unit": "fold"}]}, {"compound": "CC[C@H](C)[C@H](NC(=O)[C@H](CC(C)C)NC(=O)[C@H](CO)NC(=O)[C@H](Cc1c[nH]cn1)NC(=O)[C@@H](NC(=O)[C@H](CC(C)C)NC(=O)[C@H](CO)NC(=O)[C@@H](NC(=O)[C@H](Cc1ccc(O)cc1)NC(=O)[C@H](CC(N)=O)NC(=O)[C@H](CC(N)=O)NC(=O)[C@@H](NC(=O)[C@H](CCC(=O)O)NC(=O)[C@H](CCCNC(=N)N)NC(=O)[C@H](CC(=O)O)NC(=O)[C@H](Cc1c[nH]c2ccccc12)NC(=O)[C@H](CCC(=O)O)NC(=O)[C@H](CCSC)NC(=O)[C@H](Cc1c[nH]c2ccccc12)NC(C)=O)[C@@H](C)CC)[C@@H](C)O)[C@@H](C)CC)C(=O)N[C@@H](CCC(=O)O)C(=O)N[C@@H](CCC(=O)O)C(=O)N[C@@H](CO)C(=O)N[C@@H](CCC(N)=O)C(=O)N[C@@H](CC(N)=O)C(=O)N[C@@H](CCC(N)=O)C(=O)N[C@@H](CCC(N)=O)C(=O)N[C@@H](CCC(=O)O)C(=O)N[C@@H](CCCCN)C(=O)N[C@@H](CC(N)=O)C(=O)N[C@@H](CCC(=O)O)C(=O)N[C@@H](CCC(N)=O)C(=O)N[C@@H](CCC(=O)O)C(=O)N[C@@H](CC(C)C)C(=O)N[C@@H](CC(C)C)C(=O)NCC(=O)N[C@@H](CO)C(=O)NCC(=O)N[C@@H](CSCC(=O)O[C@H]1CC[C@@]2(C)C(=CC[C@H]3[C@@H]4CC[C@H]([C@H](C)CCCC(C)C)[C@@]4(C)CC[C@@H]32)C1)C(N)=O", "note": "[Peptide C34-Chol]", "values": [{"measurement": "IC50 fold change", "setting": "HIV-HXB2 [2]", "result": 7, "unit": "fold"}, {"measurement": "plasma concentration at 24 h as multiple of the measured IC50", "setting": "[3]; […], 24 h, versus IC50 7 pM", "result": "> 500", "unit": "fold"}, {"measurement": "AUC(0-t)", "setting": "[3]; plasma, 3.5 mg/kg", "result": 11.5, "unit": "µM·h"}, {"measurement": "Cmax", "setting": "[3]; plasma, 3.5 mg/kg", "result": 3.1, "unit": "µM"}, {"measurement": "Tmax", "setting": "[3]; plasma, 3.5 mg/kg", "result": 4, "unit": "h"}, {"measurement": "CL/F", "setting": "[3]; plasma, 3.5 mg/kg, read-out: CI/F", "result": 0.036, "unit": "L/h/kg"}, {"measurement": "level at time molar at 24 h", "setting": "[3]; plasma, intraperitoneal, 3.5 mg/kg, 24 h, read-out: plasma concentration still detectable after 24 h", "result": "~0.06", "unit": "µM"}, {"measurement": "increase of antiviral potency over C34 and C34-Aceta", "setting": "HIV-HXB2 [1]", "result": 50, "unit": "fold"}, {"measurement": "potency relative to enfuvirtide/FUZEON", "setting": "HIV-HXB2 [1]", "result": "~100", "unit": "fold"}, {"measurement": "breadth of antiviral response", "setting": "multiple HIV-1 isolates", "result": "comparable IC50 in all strains"}, {"measurement": "potency relative to underivatized or cys-alkylated C34 across the whole panel", "setting": "multiple HIV-1 isolates", "result": "~50", "unit": "fold"}]}, {"compound": "CCCCCCCCCCCCCCCC(=O)NCCCC[C@H](NC(=O)CNC(=O)[C@H](CO)NC(=O)CNC(=O)[C@H](CC(C)C)NC(=O)[C@H](CC(C)C)NC(=O)[C@H](CCC(=O)O)NC(=O)[C@H](CCC(N)=O)NC(=O)[C@H](CCC(=O)O)NC(=O)[C@H](CC(N)=O)NC(=O)[C@H](CCCCN)NC(=O)[C@H](CCC(=O)O)NC(=O)[C@H](CCC(N)=O)NC(=O)[C@H](CCC(N)=O)NC(=O)[C@H](CC(N)=O)NC(=O)[C@H](CCC(N)=O)NC(=O)[C@H](CO)NC(=O)[C@H](CCC(=O)O)NC(=O)[C@H](CCC(=O)O)NC(=O)[C@@H](NC(=O)[C@H](CC(C)C)NC(=O)[C@H](CO)NC(=O)[C@H](Cc1c[nH]cn1)NC(=O)[C@@H](NC(=O)[C@H](CC(C)C)NC(=O)[C@H](CO)NC(=O)[C@@H](NC(=O)[C@H](Cc1ccc(O)cc1)NC(=O)[C@H](CC(N)=O)NC(=O)[C@H](CC(N)=O)NC(=O)[C@@H](NC(=O)[C@H](CCC(=O)O)NC(=O)[C@H](CCCNC(=N)N)NC(=O)[C@H](CC(=O)O)NC(=O)[C@H](Cc1c[nH]c2ccccc12)NC(=O)[C@H](CCC(=O)O)NC(=O)[C@H](CCSC)NC(=O)[C@H](Cc1c[nH]c2ccccc12)NC(C)=O)[C@@H](C)CC)[C@@H](C)O)[C@@H](C)CC)[C@@H](C)CC)C(N)=O", "note": "[Peptide C34-Pam]", "values": [{"measurement": "antiviral activity relative to underivatized C34", "setting": "HIV-HXB2 [1]", "result": "comparable activity to underivatized C34"}]}, {"compound": "enfuvirtide", "values": [{"measurement": "IC50", "setting": "HIV-HXB2 [1]; read-out: IC50 viral infectivity, mean ± SEM of three independent experiments (Table 2)", "result": "0.000692 ± 0.000245", "unit": "µM"}]}]}
